Measurements as given in patent publication US8951972B2, “FGFR1 extracellular domain combination therapies for lung cancer” (Five Prime Therapeutics, Inc., priority 2010, dated 2015).

Tests used:
[1] = tested on: H520 Non-Small Cell Lung Cancer (NSCLC) Xenograft; experiment: H520 non-small cell lung cancer (NSCLC) xenograft model, tumor volume; type: in vivo, SCID mice
Experimental: Dosing for all groups began one day post tumor implantation.
In combination groups, FGFR1-ECD.339-Fc and pemetrexed were administered on the same schedule as when given as single agents, and were administered concurrently on days 1, 4, 8, and 11.

[2] = tested on: H1703 Non-Small Cell Lung Cancer (NSCLC) Xenograft; experiment: H1703 non-small cell lung cancer (NSCLC) xenograft model, tumor volume; type: in vivo, SCID mice; conditions: day 38; FGFR1-ECD.339-Fc 15 mg/kg i.p. 2x/wk; docetaxel 25 mg/kg i.p. 1x/3 wk x 2 doses
Experimental: Human non-small cell lung cancer (NSCLC) cell line H1703 was used as the tumor model and was purchased from ATCC (Manassas, Va.; Cat. No. CRL-5889).
Docetaxel was purchased from Toronto Research Chemicals (North York, Ontario, Canada; cat. No. D494420) and formulated in H2O containing 5% Tween 80 and 5% glucose. Docetaxel was administered i.p. at 25 mg/kg (equivalent to about 75 mg/m^2 in a human) once every three weeks for two doses. In combination groups, FGFR1-ECD.339-Fc and docetaxel were either given concurrently or sequentially with FGFR1-ECD.339-Fc given one day before docetaxel or vice versa. Human albumin was purchased from Grifols USA (Los Angeles, Calif.; Cat. No. NDC 61953-0002-1), formulated in PBS at 3 mg/mL and was used as negative control at 300 μg/100 μL/mouse (15 mg/kg).
The tumor volume was measured by external caliper to determine the greatest longitudinal diameter (length) and the greatest transverse diameter (width). The tumor volume was then calculated using the following formula: Tumor volume (mm^3)=(length×width^2)/2

[3] = day 49, FGFR1-ECD.339-Fc alone 15 mg/kg i.p. 2x/wk x 6 wks

FGFR1-ECD.339-Fc: human FGFR1 extracellular domain ending at amino acid 339 fused to an Fc; SEQ ID NO: 6 (mature form)
Tumor inhibition over the course of the study (mean tumor volume) ([1]; FIGS. 2A, 3A, 4A, FGFR1-ECD.339-Fc 15 mg/kg, pemetrexed alone at the low or medium dose (62.5 or 125 mg/kg), combination dosed concurrently): resulted in tumor inhibition | Fractional tumor volume (FTV), each treatment alone ([1]; day 49, FGFR1-ECD.339-Fc 15 mg/kg, pemetrexed 62.5 mg/kg): 0.68 | Fractional tumor volume (FTV), each treatment alone ([1]; day 49, FGFR1-ECD.339-Fc 15 mg/kg, pemetrexed 125 mg/kg): 0.68 | Fractional tumor volume (FTV), each treatment alone ([1]; day 49, FGFR1-ECD.339-Fc 15 mg/kg, pemetrexed 250 mg/kg): 0.68 | Mean Tumor volume mm^3(±SD) [1, 3]: 630.4 (±461.5) mm^3 | Tumor growth inhibition (%) [1, 3]: 31% | Fractional tumor volume (FTV), each treatment alone [2]: 0.68 | Mean Tumor volume mm^3(±SD) [2]: 557 (±151) mm^3 | Tumor growth inhibition (%) [2]: 33%
